Data on 21 substances can be found in patent US9597407B2, “Targeted antimicrobial moieties” (C3 Jian, Inc., priority 2009, dated 2017).

“Also recorded” adds a separate entry of the source.

The subject of one assay is bacteria. The assay can be described thus: Binding of targeting peptides to microorganisms (Table 3). Conditions: peptide binding in aqueous buffers that varied depending on peptide solubility; preferably 1x PBS.
Another assay deals with microorganisms. The assay can be described thus: Morphology, biofilm and growth disruption by peptides (Table 5). It is filed as cell-based. Also noted: key: A: Peptide aggregates; B: Less hyphal formation; Clumps; Diffuse clumps and small polyps; F: Diffuse growth; H: Thin; I: Growth inhibition; Microcolony formation; Rippled; Small polyps; Thick; W: Halo formation on top, microlonies on bottom. An excerpt:
In certain embodiments peptides that induce alterations in phenotype or other biological activities can also be used as antimicrobial effector moieties.

Turning to “PF-609 (TEIKLDNNEYLVLNLDDILGILK; Peptide with targeting and/or antimicrobial activity)”, the “Target(s) (microorganism bound by the targeting peptide)” value in the assay with bacteria is “P. mirabilis; also recorded: E. coli; also recorded: S. pneumoniae”. Also, the “Organism, effect (morphology, biofilm and growth disruption)” value in the assay with microorganisms (C. jejuni) was “C. jejuni (R)”; with microorganisms (E. faecalis), “E. faecalis (A)”; with microorganisms (MRSA) it was “MRSA (C)”; with microorganisms (S. pneumoniae) it was “S. pneumoniae (R)”.

As to “PF-613 (ADEFAKL; Peptide with targeting and/or antimicrobial activity)”, the “Target(s) (microorganism bound by the targeting peptide)” value with bacteria is listed as “C. jeikeium”. In addition, the “Organism, effect (morphology, biofilm and growth disruption)” value with microorganisms (E. faecalis) is given as “E. faecalis (A)”; in the assay on microorganisms (MRSA) it was “MRSA (C)”; with microorganisms (S. epidermidis) it was “S. epidermidis (R)”.

Take “PF-629 (chain 1 GLAAIATVFALY; chain 2 GLAAIATVFALY; Peptide with targeting and/or antimicrobial activity)”: the “Target(s) (microorganism bound by the targeting peptide)” value in the assay with bacteria was “S. epidermidis and P. aeruginosa and C. albicans and MRSA and S. pneumoniae and E. faecalis and C. jeikeium”. For the same substance, the “Organism, effect (morphology, biofilm and growth disruption)” value in the assay on microorganisms (C. jeikeium) was “C. jeikeium (R)”; in the assay on microorganisms (E. faecalis), “E. faecalis (R)”; in the assay with microorganisms (MRSA), “MRSA (D)”; in the assay on microorganisms (S. epidermidis), “S. epidermidis (C)”; in the assay with microorganisms (S. pneumoniae), “S. pneumoniae (M)”.

For “PF-631 (chain 1 LIIYFSKTGNTARATRQI; chain 2 LIIYFSKTGNTARATRQI; Peptide with targeting and/or antimicrobial activity)”, in the assay with bacteria, the “Target(s) (microorganism bound by the targeting peptide)” value was “S. epidermidis and P. aeruginosa and C. albicans and MRSA and S. pneumoniae and E. faecalis and C. jeikeium”. Further, the “Organism, effect (morphology, biofilm and growth disruption)” value is “E. faecalis (H)” in the assay with microorganisms (E. faecalis) and “S. pneumoniae (I)” in the assay with microorganisms (S. pneumoniae).

Turning to “PF-632 (chain 1 TTIQGVASLEKHGFRYTIIYPTRI; chain 2 TTIQGVASLEKHGFRYTIIYPTRI; Peptide with targeting and/or antimicrobial activity)”, in the assay on bacteria, the “Target(s) (microorganism bound by the targeting peptide)” value was “S. epidermidis and P. aeruginosa and C. albicans and MRSA and S. pneumoniae and E. faecalis and C. jeikeium”. Besides, the “Organism, effect (morphology, biofilm and growth disruption)” value is reported as “B. subtilis (H)” in the assay on microorganisms (B. subtilis); “C. albicans (B)” with microorganisms (C. albicans); “C. jeikeium (D)” with microorganisms (C. jeikeium); “E. faecalis (D)” in the assay with microorganisms (E. faecalis); “MRSA (D)” in the assay with microorganisms (MRSA); “S. epidermidis (D)” with microorganisms (S. epidermidis). The “Organism, effect (morphology, biofilm and growth disruption)” value with microorganisms (S. pneumoniae) is recorded as “S. pneumoniae (M)”.

Regarding “PF-636 (chain 1 LVRLA; chain 2 LVRLA; Peptide with targeting and/or antimicrobial activity)”, the “Target(s) (microorganism bound by the targeting peptide)” value in the assay with bacteria was “S. epidermidis and C. albicans and MRSA and S. pneumoniae and E. faecalis”. For the same substance, the “Organism, effect (morphology, biofilm and growth disruption)” value with microorganisms (B. subtilis) was “B. subtilis (H)”; in the assay with microorganisms (C. albicans) it was “C. albicans (B)”; in the assay on microorganisms (E. faecalis), “E. faecalis (H)”; in the assay on microorganisms (S. pneumoniae), “S. pneumoniae (H)”.

For “PF-637 (chain 1 SRIKQDARSVRKYDRIGIFFYSFKSA; chain 2 SRIKQDARSVRKYDRIGIFFYSFKSA; Peptide with targeting and/or antimicrobial activity)”, in the assay on bacteria, the “Target(s) (microorganism bound by the targeting peptide)” value was “S. epidermidis and P. aeruginosa and C. albicans and MRSA and S. pneumoniae and E. faecalis and C. jeikeium”. For the same substance, the “Organism, effect (morphology, biofilm and growth disruption)” value in the assay with microorganisms (C. jeikeium) is “C. jeikeium (D)”; in the assay on microorganisms (E. faecalis), “E. faecalis (D)”; in the assay on microorganisms (MRSA) it was “MRSA (M)”; in the assay with microorganisms (S. epidermidis) it was “S. epidermidis (M)”; with microorganisms (S. pneumoniae), “S. pneumoniae (M)”.

Regarding “PF-638 (chain 1 TFILPK; chain 2 TFILPK; Peptide with targeting and/or antimicrobial activity)”, the “Target(s) (microorganism bound by the targeting peptide)” value in the assay with bacteria is “S. epidermidis and C. albicans and MRSA and C. jeikeium”. The “Organism, effect (morphology, biofilm and growth disruption)” value was “E. faecalis (H)” with microorganisms (E. faecalis), “MRSA (M)” in the assay with microorganisms (MRSA), “S. epidermidis (R)” with microorganisms (S. epidermidis) and “S. pneumoniae (I)” with microorganisms (S. pneumoniae).

For “PF-639 (chain 1 QATQIKSWIDRLLVSED; chain 2 QATQIKSWIDRLLVSED; Peptide with targeting and/or antimicrobial activity)”, in the assay with bacteria, the “Target(s) (microorganism bound by the targeting peptide)” value is “S. pneumoniae; also recorded: C. jeikeium”. Moreover, the “Organism, effect (morphology, biofilm and growth disruption)” value in the assay on microorganisms (C. albicans) is “C. albicans (B)”; with microorganisms (E. faecalis), “E. faecalis (H)”; with microorganisms (MRSA) it was “MRSA (R)”; with microorganisms (S. pneumoniae), “S. pneumoniae (I)”.

On to “PF-640 (chain 1 MGDINRNF; chain 2 MGDINRNF; Peptide with targeting and/or antimicrobial activity)”, for which, in the assay with bacteria, the “Target(s) (microorganism bound by the targeting peptide)” value was “C. albicans”. Besides, the “Organism, effect (morphology, biofilm and growth disruption)” value in the assay on microorganisms (C. albicans) is listed as “C. albicans (B)”; in the assay with microorganisms (E. faecalis), “E. faecalis (H)”; in the assay on microorganisms (S. pneumoniae), “S. pneumoniae (I)”.

On to “PF-642 (chain 1 FTTPMIGIPAGLLGGSYYLKRREEKGK; chain 2 FTTPMIGIPAGLLGGSYYLKRREEKGK; Peptide with targeting and/or antimicrobial activity)”, for which the “Target(s) (microorganism bound by the targeting peptide)” value in the assay with bacteria is “M. luteus and MRSA and C. jeikeium”. Further, the “Organism, effect (morphology, biofilm and growth disruption)” value in the assay with microorganisms (MRSA) is recorded as “MRSA (M)”.

Regarding “PF-643 (chain 1 VRCRL; chain 2 VRCRL; Peptide with targeting and/or antimicrobial activity)”, in the assay with bacteria, the “Target(s) (microorganism bound by the targeting peptide)” value is “Mycobacteria spp”. Also, the results for the “Organism, effect (morphology, biofilm and growth disruption)” value in the assay on microorganisms (E. faecalis), with microorganisms (MRSA) and in the assay on microorganisms (S. pneumoniae) were “E. faecalis (R)”, “MRSA (C)” and “S. pneumoniae (R)”, respectively.

Consider “PF-644 (chain 1 TSGLIIGENGLNGL; chain 2 TSGLIIGENGLNGL; Peptide with targeting and/or antimicrobial activity)”, for which, in the assay on bacteria, the “Target(s) (microorganism bound by the targeting peptide)” value is recorded as “Mycobacteria spp”. In addition, the “Organism, effect (morphology, biofilm and growth disruption)” value in the assay with microorganisms (S. pneumoniae) is reported as “S. pneumoniae (H)”.

“PF-645 (chain 1 SNSVQQG; chain 2 SNSVQQG; Peptide with targeting and/or antimicrobial activity)”: the “Target(s) (microorganism bound by the targeting peptide)” value in the assay with bacteria is “Mycobacteria spp”. Besides, the “Organism, effect (morphology, biofilm and growth disruption)” value in the assay on microorganisms (C. albicans) was “C. albicans (B)”; with microorganisms (S. pneumoniae), “S. pneumoniae (I)”.

For “PF-646 (chain 1 APASPGRRPG; chain 2 APASPGRRPG; Peptide with targeting and/or antimicrobial activity)”, the “Target(s) (microorganism bound by the targeting peptide)” value in the assay with bacteria is given as “Mycobacteria spp”. For the same substance, the “Organism, effect (morphology, biofilm and growth disruption)” value was “C. albicans (B)” in the assay on microorganisms (C. albicans) and “S. pneumoniae (H)” in the assay with microorganisms (S. pneumoniae).

On to “PF-647 (chain 1 GTFLGQKCAAATAS; chain 2 GTFLGQKCAAATAS; Peptide with targeting and/or antimicrobial activity)”, for which the “Target(s) (microorganism bound by the targeting peptide)” value with bacteria is given as “Mycobacteria spp”. The “Organism, effect (morphology, biofilm and growth disruption)” value in the assay with microorganisms (C. albicans) is “C. albicans (B)”; with microorganisms (S. pneumoniae) it was “S. pneumoniae (R)”.

As to “PF-649 (chain 1 CPRYPFVDVGPAGPWRARWRVGS; chain 2 CPRYPFVDVGPAGPWRARWRVGS; Peptide with targeting and/or antimicrobial activity)”, the “Target(s) (microorganism bound by the targeting peptide)” value with bacteria was “Mycobacteria spp”. The “Organism, effect (morphology, biofilm and growth disruption)” value in the assay on microorganisms (E. faecalis) is reported as “E. faecalis (R)”.

With “PF-651 (chain 1 PRWPTGAGRHR; chain 2 PRWPTGAGRHR; Peptide with targeting and/or antimicrobial activity)”, the “Target(s) (microorganism bound by the targeting peptide)” value with bacteria was “Mycobacteria spp”. Moreover, the “Organism, effect (morphology, biofilm and growth disruption)” value in the assay with microorganisms (S. pneumoniae) was “S. pneumoniae (H)”.

Consider “PF-652 (chain 1 FLAPARPDLQAQRQALAQ; chain 2 FLAPARPDLQAQRQALAQ; Peptide with targeting and/or antimicrobial activity)”, for which the “Target(s) (microorganism bound by the targeting peptide)” value in the assay with bacteria is recorded as “Mycobacteria spp”. Moreover, in the assay with microorganisms (S. pneumoniae), the “Organism, effect (morphology, biofilm and growth disruption)” value was “S. pneumoniae (A)”.

Turning to “PF-653 (chain 1 QSVHPLPAETPVADVI; chain 2 QSVHPLPAETPVADVI; Peptide with targeting and/or antimicrobial activity)”, the “Target(s) (microorganism bound by the targeting peptide)” value in the assay on bacteria is “Mycobacteria spp”. Moreover, the “Organism, effect (morphology, biofilm and growth disruption)” value with microorganisms (S. pneumoniae) is recorded as “S. pneumoniae (H)”.

For “PF-654 (chain 1 LSGRLAGRR; chain 2 LSGRLAGRR; Peptide with targeting and/or antimicrobial activity)”, the “Target(s) (microorganism bound by the targeting peptide)” value in the assay with bacteria is reported as “Mycobacteria spp”. In addition, the “Organism, effect (morphology, biofilm and growth disruption)” value was “C. albicans (B)” with microorganisms (C. albicans), “MRSA (R)” in the assay on microorganisms (MRSA) and “S. pneumoniae (A)” with microorganisms (S. pneumoniae).
